According to ChEMBL document CHEMBL1201862, “PubChem BioAssay data set” (2004):
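Briefly, cells in 96-well plates were exposed to five compound concentrations for 48 h, and endpoints were estimated by linear interpolation. GI50 = concentration required for 50% inhibition of growth.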 Activity calls are given as the source filed them. Rule as the data show it: active = GI50 up to about 1.1 µM and inactive = higher.

Tests used:
Experiment in all cases: NCI tumour cell line growth inhibition, 48 h
MDA-N = system: MDA-N
T47D = system: T47D
HCT-15 = system: HCT-15
EKVX = system: EKVX
SK-OV-3 = system: SK-OV-3
OVCAR-3 = system: OVCAR-3
MDA-MB-231 = system: MDA-MB-231
SF-295 = system: SF-295
CAKI-1 = system: CAKI-1
Hs-578T = system: Hs-578T
CCRF-CEM = system: CCRF-CEM
NCI-H23 = system: NCI-H23
786-0 = system: 786-0
OVCAR-5 = system: OVCAR-5
SNB-19 = system: SNB-19
OVCAR-8 = system: OVCAR-8
TK-10 = system: TK-10
HCT-116 = system: HCT-116
NCI-H226 = system: NCI-H226
RPMI-8226 = system: RPMI-8226
HOP-92 = system: HOP-92
K562 = system: K562
SW-620 = system: SW-620
UACC-62 = system: UACC-62
SK-MEL-28 = system: SK-MEL-28
RXF 393 = system: RXF 393
UACC-257 = system: UACC-257
OVCAR-4 = system: OVCAR-4
PC-3 = system: PC-3
SN12C = system: SN12C
M14 = system: M14
ACHN = system: ACHN
A549 = system: A549
SNB-75 = system: SNB-75
LOX IMVI = system: LOX IMVI
SK-MEL-5 = system: SK-MEL-5
NCI-H522 = system: NCI-H522
HCC 2998 = system: HCC 2998
SK-MEL-2 = system: SK-MEL-2
HOP-62 = system: HOP-62
UO-31 = system: UO-31
HL-60 = system: HL-60
MDA-MB-435 = system: MDA-MB-435
IGROV-1 = system: IGROV-1
U-251 = system: U-251
COLO 205 = system: COLO 205
SF-539 = system: SF-539
KM12 = system: KM12
MOLT-4 = system: MOLT-4
A498 = system: A498
HT-29 = system: HT-29
NCI/ADR-RES = system: NCI/ADR-RES
NCI-H460 = system: NCI-H460
DU-145 = system: DU-145
SR = system: SR
SF-268 = system: SF-268
Malme-3M = system: Malme-3M

With CCC(=O)N(c1ccccc1)C(C)CN1CCC(O)(c2cccc(C(F)(F)F)c2)CC1 (stereo not drawn) the GI50 (MDA-N) was 19.5 µM (inactive), the GI50 (T47D) was 33.7 µM (inactive) and the GI50 (HCT-15) was 30.6 µM. For the same compound, the GI50 (EKVX) was 31.8 µM (inactive), the GI50 (SK-OV-3) was 52.6 µM (inactive) and the GI50 (OVCAR-3) was 45.6 µM (inactive). For the same compound, the GI50 (MDA-MB-231) was 21.6 µM (inactive), the GI50 (SF-295) was 35.4 µM (inactive) and the GI50 (CAKI-1) was > 100 µM (inactive). The GI50 (Hs-578T) was 34.8 µM (inactive), the GI50 (CCRF-CEM) was 19.9 µM (inactive) and the GI50 (NCI-H23) was 21.4 µM (inactive). For the same compound, the GI50 (786-0) was 18.5 µM (inactive), the GI50 (OVCAR-5) was 22.8 µM (inactive) and the GI50 (SNB-19) was > 100 µM (inactive). The GI50 (OVCAR-8) was 38.1 µM (inactive), the GI50 (TK-10) was 25.1 µM (inactive) and the GI50 (HCT-116) was 17.3 µM (inactive). For the same compound, the GI50 (NCI-H226) was 30.2 µM (inactive), the GI50 (RPMI-8226) was 18.7 µM (inactive) and the GI50 (HOP-92) was 22.8 µM (inactive). The GI50 (K562) was 20.9 µM (inactive), the GI50 (SW-620) was > 100 µM (inactive) and the GI50 (UACC-62) was 22.1 µM (inactive). For the same compound, the GI50 (SK-MEL-28) was 23.1 µM (inactive), the GI50 (RXF 393) was > 100 µM (inactive) and the GI50 (UACC-257) was 17.5 µM (inactive). For the same compound, the GI50 (OVCAR-4) was 33.3 µM (inactive), the GI50 (PC-3) was 19.3 µM (inactive) and the GI50 (SN12C) was 37.9 µM (inactive). For the same compound, the GI50 (M14) was 16.1 µM (inactive), the GI50 (ACHN) was 36.2 µM (inactive) and the GI50 (A549) was 39 µM (inactive). For the same compound, the GI50 (SNB-75) was 32.8 µM (inactive), the GI50 (LOX IMVI) was 18.9 µM (inactive) and the GI50 (SK-MEL-5) was 20.6 µM (inactive). The GI50 (NCI-H522) was 20.2 µM (inactive), the GI50 (HCC 2998) was 26.5 µM (inactive) and the GI50 (SK-MEL-2) was 20.9 µM (inactive). For the same compound, the GI50 (HOP-62) was 21.5 µM (inactive), the GI50 (UO-31) was 28.8 µM (inactive) and the GI50 (HL-60) was 17.8 µM (inactive). The GI50 (MDA-MB-435) was 20.2 µM (inactive), the GI50 (IGROV-1) was 59.2 µM (inactive) and the GI50 (U-251) was 37.2 µM (inactive). For the same compound, the GI50 (COLO 205) was 14.7 µM (inactive), the GI50 (SF-539) was 23.2 µM (inactive) and the GI50 (KM12) was 35.2 µM (inactive). For the same compound, the GI50 (MOLT-4) was 17.9 µM (inactive), the GI50 (A498) was 26.8 µM (inactive) and the GI50 (HT-29) was 13 µM (inactive). For the same compound, the GI50 (NCI/ADR-RES) was 19.5 µM (inactive).

For ClCCN1CCO/C1=N/c1ccc2c(c1)CCCC2, the GI50 (MDA-N) was 10.8 µM (inactive), the GI50 (NCI-H460) was 18.8 µM (inactive) and the GI50 (T47D) was 8.51 µM (inactive). For the same compound, the GI50 (HCT-15) was 20 µM, the GI50 (EKVX) was 14 µM (inactive) and the GI50 (DU-145) was 15.7 µM (inactive). The GI50 (SR) was 19.6 µM (inactive), the GI50 (SK-OV-3) was 20.7 µM (inactive) and the GI50 (OVCAR-3) was 13 µM (inactive). For the same compound, the GI50 (MDA-MB-231) was 13.4 µM (inactive), the GI50 (SF-295) was 12.1 µM (inactive) and the GI50 (CAKI-1) was 16 µM (inactive). For the same compound, the GI50 (Hs-578T) was 13.9 µM (inactive), the GI50 (CCRF-CEM) was 11.3 µM (inactive) and the GI50 (NCI-H23) was 8.95 µM (inactive). For the same compound, the GI50 (786-0) was 16.2 µM (inactive), the GI50 (OVCAR-5) was 17.3 µM (inactive) and the GI50 (SNB-19) was 5.53 µM (inactive). The GI50 (OVCAR-8) was 5.13 µM (inactive), the GI50 (HCT-116) was 13.4 µM (inactive) and the GI50 (NCI-H226) was 13.5 µM (inactive). The GI50 (RPMI-8226) was 4.76 µM (inactive), the GI50 (HOP-92) was 11.2 µM (inactive) and the GI50 (K562) was 6.7 µM (inactive). For the same compound, the GI50 (SW-620) was 22.3 µM (inactive), the GI50 (UACC-62) was 11.3 µM (inactive) and the GI50 (SK-MEL-28) was 14.1 µM (inactive). The GI50 (RXF 393) was 8.39 µM (inactive), the GI50 (UACC-257) was 3.82 µM (inactive) and the GI50 (OVCAR-4) was 6.1 µM (inactive). For the same compound, the GI50 (PC-3) was 4.44 µM (inactive), the GI50 (SN12C) was 12.6 µM (inactive) and the GI50 (SF-268) was 14.7 µM (inactive). For the same compound, the GI50 (M14) was 13.3 µM (inactive), the GI50 (ACHN) was 7.05 µM (inactive) and the GI50 (Malme-3M) was 7.19 µM (inactive). The GI50 (A549) was 13.8 µM (inactive), the GI50 (SNB-75) was 13.3 µM (inactive) and the GI50 (LOX IMVI) was 13.4 µM (inactive). For the same compound, the GI50 (SK-MEL-5) was 1.96 µM (inactive), the GI50 (NCI-H522) was 10.8 µM (inactive) and the GI50 (HCC 2998) was 14.1 µM (inactive). For the same compound, the GI50 (SK-MEL-2) was 13.7 µM (inactive), the GI50 (HOP-62) was 4.67 µM (inactive) and the GI50 (UO-31) was 14 µM (inactive). For the same compound, the GI50 (HL-60) was 4.25 µM (inactive), the GI50 (MDA-MB-435) was 10.5 µM (inactive) and the GI50 (IGROV-1) was 7.48 µM (inactive). For the same compound, the GI50 (U-251) was 4.65 µM (inactive), the GI50 (COLO 205) was 12.2 µM (inactive) and the GI50 (SF-539) was 4.81 µM (inactive). For the same compound, the GI50 (KM12) was 17.9 µM (inactive), the GI50 (MOLT-4) was 12.2 µM (inactive) and the GI50 (A498) was 6.92 µM (inactive). For the same compound, the GI50 (HT-29) was 14.4 µM (inactive) and the GI50 (NCI/ADR-RES) was 18.1 µM (inactive).
